We go through five compounds from paper PMC12816581 (Nature Communications, 2025).

For orientation: Kd means the constant that tells how readily two partners part at equilibrium.

In one data set the target is DDB1 (Homo sapiens, UniProt Q16531). The data set can be described thus: E-ASMS affinity selection. The format is binding.
For another data set, the target named is T1, USP21 (Homo sapiens, UniProt Q9UK80).
T1 sequence (Q9UK80 1-565): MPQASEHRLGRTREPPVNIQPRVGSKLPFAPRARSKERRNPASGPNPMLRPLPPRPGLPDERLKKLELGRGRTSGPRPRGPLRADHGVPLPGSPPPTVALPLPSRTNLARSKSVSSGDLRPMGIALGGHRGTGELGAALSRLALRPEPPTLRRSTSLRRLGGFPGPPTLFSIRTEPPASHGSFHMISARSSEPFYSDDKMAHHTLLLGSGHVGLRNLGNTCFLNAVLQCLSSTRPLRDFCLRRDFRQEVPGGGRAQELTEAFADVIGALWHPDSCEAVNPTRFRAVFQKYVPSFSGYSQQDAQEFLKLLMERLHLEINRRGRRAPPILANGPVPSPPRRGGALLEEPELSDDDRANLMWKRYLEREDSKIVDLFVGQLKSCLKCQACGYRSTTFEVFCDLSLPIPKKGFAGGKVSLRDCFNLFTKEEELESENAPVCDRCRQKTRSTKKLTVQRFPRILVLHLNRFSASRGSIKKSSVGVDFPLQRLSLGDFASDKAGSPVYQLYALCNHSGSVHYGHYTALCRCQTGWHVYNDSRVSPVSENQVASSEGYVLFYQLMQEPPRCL
The data set can be described thus: E-ASMS affinity selection. The data set is classed as binding. Particulars: USP21 beads, negative control protein.

The target of another data set is PRMT5 (Homo sapiens, UniProt O14744). Put plainly: E-ASMS affinity selection. The data set is classed as binding.
PRMT5, sequence (O14744 whole entry): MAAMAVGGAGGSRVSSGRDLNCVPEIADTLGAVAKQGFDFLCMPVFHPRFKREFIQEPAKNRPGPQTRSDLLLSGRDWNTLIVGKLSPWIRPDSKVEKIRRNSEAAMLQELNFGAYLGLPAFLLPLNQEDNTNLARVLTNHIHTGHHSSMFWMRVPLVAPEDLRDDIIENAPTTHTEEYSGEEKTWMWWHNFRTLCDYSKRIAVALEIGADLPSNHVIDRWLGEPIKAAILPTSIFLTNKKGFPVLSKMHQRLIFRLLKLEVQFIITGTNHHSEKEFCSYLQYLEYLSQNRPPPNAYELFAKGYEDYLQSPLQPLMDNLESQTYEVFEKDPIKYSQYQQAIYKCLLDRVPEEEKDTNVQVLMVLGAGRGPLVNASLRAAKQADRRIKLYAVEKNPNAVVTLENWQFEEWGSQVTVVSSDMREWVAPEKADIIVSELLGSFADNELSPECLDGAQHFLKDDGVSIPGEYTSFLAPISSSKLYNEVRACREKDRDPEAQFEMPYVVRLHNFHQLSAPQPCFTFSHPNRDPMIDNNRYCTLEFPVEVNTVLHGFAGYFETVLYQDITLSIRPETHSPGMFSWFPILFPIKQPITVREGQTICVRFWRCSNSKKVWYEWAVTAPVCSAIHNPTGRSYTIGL
PRMT5, sequence (Q9BQA1 whole entry partner): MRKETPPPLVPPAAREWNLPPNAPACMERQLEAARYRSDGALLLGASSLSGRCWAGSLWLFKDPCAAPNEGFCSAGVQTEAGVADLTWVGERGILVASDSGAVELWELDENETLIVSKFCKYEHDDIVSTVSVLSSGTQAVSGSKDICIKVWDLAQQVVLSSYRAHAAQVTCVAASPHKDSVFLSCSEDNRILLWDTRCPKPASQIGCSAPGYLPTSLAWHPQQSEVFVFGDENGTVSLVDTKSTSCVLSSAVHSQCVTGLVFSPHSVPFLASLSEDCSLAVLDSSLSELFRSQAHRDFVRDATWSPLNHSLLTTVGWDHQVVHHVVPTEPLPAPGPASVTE
The next data set addresses DCAF1 (Homo sapiens, UniProt Q9Y4B6). The data set can be described thus: E-ASMS affinity selection. Particulars: DCAF1 beads, negative control protein. The format is binding.
Data set [1] is described as follows: Chiral stability assessment via hydrogen-deuterium. The data set is classed as physicochemical. Particulars: binding buffer with D2O, 4 °C, 8 h; indicates potential spontaneous racemization.
For another data set, the target named is T2, WDR91 (Homo sapiens, UniProt A4D1P6).
T2 sequence (A4D1P6 1-747): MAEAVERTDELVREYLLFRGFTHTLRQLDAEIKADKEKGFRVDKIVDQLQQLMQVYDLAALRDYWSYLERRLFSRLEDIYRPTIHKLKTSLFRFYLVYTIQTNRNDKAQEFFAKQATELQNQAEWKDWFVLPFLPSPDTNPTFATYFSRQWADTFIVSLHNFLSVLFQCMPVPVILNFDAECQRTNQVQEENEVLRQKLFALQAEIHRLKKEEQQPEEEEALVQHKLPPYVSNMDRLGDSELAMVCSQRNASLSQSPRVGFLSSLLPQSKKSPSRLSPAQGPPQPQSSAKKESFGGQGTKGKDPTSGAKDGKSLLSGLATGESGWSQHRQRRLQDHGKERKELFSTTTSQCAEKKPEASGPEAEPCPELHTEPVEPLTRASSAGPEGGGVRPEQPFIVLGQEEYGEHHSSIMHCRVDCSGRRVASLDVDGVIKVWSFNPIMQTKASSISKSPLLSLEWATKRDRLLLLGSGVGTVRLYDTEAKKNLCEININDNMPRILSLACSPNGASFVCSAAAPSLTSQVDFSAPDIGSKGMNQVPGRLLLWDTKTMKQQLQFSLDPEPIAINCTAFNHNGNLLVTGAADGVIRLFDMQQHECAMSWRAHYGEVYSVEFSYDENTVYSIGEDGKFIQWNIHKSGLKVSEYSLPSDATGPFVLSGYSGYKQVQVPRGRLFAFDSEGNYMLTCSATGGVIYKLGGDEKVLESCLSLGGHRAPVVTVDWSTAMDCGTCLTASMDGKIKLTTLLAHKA
The data set is classed as binding.

Data set [2] addresses T3, WDR55 (Homo sapiens, UniProt Q9H6Y2).
T3 sequence (Q9H6Y2 1-383): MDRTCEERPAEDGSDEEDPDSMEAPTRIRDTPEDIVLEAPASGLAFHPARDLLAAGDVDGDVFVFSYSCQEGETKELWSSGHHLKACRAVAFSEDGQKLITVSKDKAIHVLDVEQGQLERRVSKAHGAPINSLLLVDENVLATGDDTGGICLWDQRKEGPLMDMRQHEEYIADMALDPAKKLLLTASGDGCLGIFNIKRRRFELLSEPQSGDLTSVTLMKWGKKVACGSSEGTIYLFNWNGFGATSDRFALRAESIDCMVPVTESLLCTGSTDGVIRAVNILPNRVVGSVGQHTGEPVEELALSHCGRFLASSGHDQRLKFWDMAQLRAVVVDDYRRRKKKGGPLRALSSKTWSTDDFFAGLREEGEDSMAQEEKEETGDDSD
Put plainly: biochemical. The format is binding.

Data set [3] deals with T3, WDR55. The format is binding.

Structures are written as SMILES.

DDB1, sequence (Q16531 whole entry): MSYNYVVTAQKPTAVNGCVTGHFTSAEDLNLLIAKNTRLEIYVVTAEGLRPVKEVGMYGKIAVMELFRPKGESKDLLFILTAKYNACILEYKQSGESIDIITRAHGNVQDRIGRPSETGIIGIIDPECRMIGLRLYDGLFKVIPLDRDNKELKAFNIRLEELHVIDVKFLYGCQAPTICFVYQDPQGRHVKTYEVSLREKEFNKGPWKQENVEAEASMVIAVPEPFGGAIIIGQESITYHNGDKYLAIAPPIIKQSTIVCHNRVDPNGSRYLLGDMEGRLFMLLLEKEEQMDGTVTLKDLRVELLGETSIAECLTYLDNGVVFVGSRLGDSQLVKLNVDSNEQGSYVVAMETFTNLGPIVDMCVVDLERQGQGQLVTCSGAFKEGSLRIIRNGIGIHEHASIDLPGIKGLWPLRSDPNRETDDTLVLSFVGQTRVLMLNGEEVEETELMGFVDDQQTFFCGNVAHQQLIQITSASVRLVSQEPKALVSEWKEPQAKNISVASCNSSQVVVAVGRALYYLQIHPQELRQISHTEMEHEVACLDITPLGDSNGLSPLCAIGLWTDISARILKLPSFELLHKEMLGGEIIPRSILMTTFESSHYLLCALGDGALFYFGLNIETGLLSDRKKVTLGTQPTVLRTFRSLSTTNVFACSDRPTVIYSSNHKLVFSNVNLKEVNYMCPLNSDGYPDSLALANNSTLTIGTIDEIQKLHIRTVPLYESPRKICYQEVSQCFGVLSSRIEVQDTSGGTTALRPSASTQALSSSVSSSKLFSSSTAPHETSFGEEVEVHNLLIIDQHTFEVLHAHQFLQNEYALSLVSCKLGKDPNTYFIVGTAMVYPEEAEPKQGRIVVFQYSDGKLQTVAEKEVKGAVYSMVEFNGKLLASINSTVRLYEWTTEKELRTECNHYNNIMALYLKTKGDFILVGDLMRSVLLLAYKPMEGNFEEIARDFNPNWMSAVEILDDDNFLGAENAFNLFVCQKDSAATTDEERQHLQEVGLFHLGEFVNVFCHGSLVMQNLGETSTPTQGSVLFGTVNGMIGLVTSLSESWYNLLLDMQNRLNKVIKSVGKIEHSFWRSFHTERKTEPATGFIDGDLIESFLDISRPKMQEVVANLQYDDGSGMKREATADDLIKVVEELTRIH
DCAF1, sequence (Q9Y4B6 whole entry): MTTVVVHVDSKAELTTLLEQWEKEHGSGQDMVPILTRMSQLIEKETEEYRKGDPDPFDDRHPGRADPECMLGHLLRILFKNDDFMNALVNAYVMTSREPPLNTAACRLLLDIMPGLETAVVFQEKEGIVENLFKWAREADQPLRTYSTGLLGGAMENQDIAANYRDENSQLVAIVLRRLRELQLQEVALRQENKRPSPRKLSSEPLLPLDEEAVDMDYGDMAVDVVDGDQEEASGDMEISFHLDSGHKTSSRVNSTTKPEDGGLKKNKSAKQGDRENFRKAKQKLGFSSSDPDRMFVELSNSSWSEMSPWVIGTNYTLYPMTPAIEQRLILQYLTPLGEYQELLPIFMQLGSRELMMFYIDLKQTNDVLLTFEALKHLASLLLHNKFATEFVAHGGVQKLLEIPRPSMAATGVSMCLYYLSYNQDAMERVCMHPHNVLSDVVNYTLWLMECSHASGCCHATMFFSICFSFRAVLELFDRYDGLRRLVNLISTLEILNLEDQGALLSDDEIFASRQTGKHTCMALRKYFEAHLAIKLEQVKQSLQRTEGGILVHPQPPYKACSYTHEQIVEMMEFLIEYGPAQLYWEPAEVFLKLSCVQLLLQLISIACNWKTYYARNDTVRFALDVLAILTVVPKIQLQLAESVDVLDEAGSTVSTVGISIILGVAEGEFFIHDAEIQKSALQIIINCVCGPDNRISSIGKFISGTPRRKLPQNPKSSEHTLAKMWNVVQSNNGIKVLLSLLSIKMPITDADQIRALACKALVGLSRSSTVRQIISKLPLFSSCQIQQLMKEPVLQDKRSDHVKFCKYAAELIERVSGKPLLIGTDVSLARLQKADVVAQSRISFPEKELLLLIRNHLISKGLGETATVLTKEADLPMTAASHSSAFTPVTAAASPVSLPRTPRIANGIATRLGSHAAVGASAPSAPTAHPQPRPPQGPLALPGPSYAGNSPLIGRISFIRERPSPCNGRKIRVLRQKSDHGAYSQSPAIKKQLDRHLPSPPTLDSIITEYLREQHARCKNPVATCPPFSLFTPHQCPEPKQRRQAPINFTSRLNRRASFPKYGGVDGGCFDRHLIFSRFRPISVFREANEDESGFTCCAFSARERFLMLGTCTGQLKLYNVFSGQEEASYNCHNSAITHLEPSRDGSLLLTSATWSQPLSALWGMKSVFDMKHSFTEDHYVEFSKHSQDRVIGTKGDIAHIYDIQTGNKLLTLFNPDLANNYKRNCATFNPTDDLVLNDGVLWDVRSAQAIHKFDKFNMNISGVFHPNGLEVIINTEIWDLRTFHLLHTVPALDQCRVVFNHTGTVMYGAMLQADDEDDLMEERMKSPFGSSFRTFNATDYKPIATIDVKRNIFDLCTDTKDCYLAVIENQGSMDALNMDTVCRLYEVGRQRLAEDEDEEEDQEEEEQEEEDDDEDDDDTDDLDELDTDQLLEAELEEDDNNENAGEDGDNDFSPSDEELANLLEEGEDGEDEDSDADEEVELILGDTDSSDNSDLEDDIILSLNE

As to `CCOc1cccc(C2CC(=O)Nc3c2c(C)nn3-c2ccc3nncn3n2)c1` (stereo not drawn) [XS381952], the “Enantioselective enrichment (chiral chromatography of eluate)” value at DDB1 (DDB1-bead eluate vs ratio of enantiomers in starting library) is recorded as “one of the two enantiomers was clearly enriched”. Further, on DDB1 (DDB1 beads vs other proteins screened in parallel), the “Enrichment in methanol eluate (E-ASMS)” value is reported as “specifically enriched”.
`Nc1cccc2c1CN(C1CCC(=O)NC1=O)C2=O` (stereo not drawn) [Lenalidomide, lenalidomide]: the “Enrichment in methanol eluate (E-ASMS)” value on USP21 is on record as “no significant enrichment”; at PRMT5 (PRMT5 beads, negative control protein), “no significant enrichment”; at DCAF1, “no significant enrichment”.
Take `Nc1ncnc2c1ccn2[C@@H]1O[C@H]([C@H](O)c2ccccc2)[C@@H](O)[C@H]1O` [(S)-LLY283]: the “Enantioselective enrichment (chiral chromatography of eluate)” value on PRMT5 (PRMT5 eluate) was “Enantioselective enrichment”.
For `CN1C(=O)C(c2c(-c3ccc(Cl)cc3)[nH]c3c2c(=O)[nH]c(=O)n3C)c2ccccc21` (stereo not drawn) [XS381295], in data set [1], the “Deuterium incorporation (H/D exchange)” value is “showed deuterium incorporation”. Moreover, at WDR91 (WDR91-bead eluate), the “Enantioselective binding (chiral chromatography of eluate)” value is listed as “did not show enantioselectivity”. Further, the “Enrichment in methanol eluate (E-ASMS)” value at WDR91 (WDR91 beads vs other proteins screened in parallel) was “enriched”.
`CC1Cc2cc(-c3ccnc4ncnn34)ccc2O1` (stereo not drawn) [XS381774]: on WDR55 [2], the Kd stood at 11 µM. Besides, on WDR55 [3] (WDR55-bead eluate), the “Enantioselective binding (chiral chromatography of eluate)” value is recorded as “displayed enantioselectivity”. Besides, at WDR55 [3] (WDR55 beads), the “Enrichment in methanol eluate (E-ASMS)” value is “enriched”.
